The target of data set [1] is T1, CYP2B6 (Homo sapiens, UniProt P20813).
T1 construct: Pooled human liver microsomes (from sixteen individuals) were used as the source of enzymes; tissue XenoTech, LLC; host or cells: human liver microsomes, pool of sixteen donors
T1 sequence (P20813 1-491): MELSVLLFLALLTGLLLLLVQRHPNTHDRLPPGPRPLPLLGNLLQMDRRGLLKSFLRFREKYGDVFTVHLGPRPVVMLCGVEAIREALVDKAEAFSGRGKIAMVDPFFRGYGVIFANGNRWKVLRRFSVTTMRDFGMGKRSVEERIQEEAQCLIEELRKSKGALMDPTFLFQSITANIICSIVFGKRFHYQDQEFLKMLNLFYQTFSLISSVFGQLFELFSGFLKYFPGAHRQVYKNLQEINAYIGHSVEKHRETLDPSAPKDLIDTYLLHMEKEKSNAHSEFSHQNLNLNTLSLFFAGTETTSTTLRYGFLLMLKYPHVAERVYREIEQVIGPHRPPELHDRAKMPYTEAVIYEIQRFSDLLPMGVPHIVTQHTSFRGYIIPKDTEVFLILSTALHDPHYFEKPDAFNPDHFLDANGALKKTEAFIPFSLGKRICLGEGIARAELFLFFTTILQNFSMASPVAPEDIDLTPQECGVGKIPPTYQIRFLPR
As to the kind of experiment: CYP2B6 inhibition, bupropion hydroxylation in human liver microsomes. The following applies: for Potential for Time-Dep. Inhibition: comparison with and without 30-minute pre-incubation; for inhibition at 5 min, 100 µM: human, pH 7.4, probe bupropion (hydroxylation). Format: in vitro ADME. On the procedure: (§1) The basis for many of the following incubation conditions is described in the following references: Madan, et al., 2002,^(1) Huang, 2004,^(3) Ogilvie, et al., 2006,^(6) Pearce, et al., 1996,^(7) Tucker, et al., 2001,^(4) and Walsky and Obach, 2004.^(5) In general, incubations were conducted at approximately 37° C. in 400-μL incubation mixtures (target pH 7.4) containing high purity water, potassium phosphate buffer (50 mM), MgCl2 (3 mM), EDTA (1 mM), an NADPH-generating system [always the mixture of the following: NADP (1 mM), glucose-6-phosphate (5 mM), glucose-6-phosphate dehydrogenase (1 Unit/mL)], and marker substrate at the final concentrations indicated. Pooled human liver microsomes (from sixteen individuals) were used as the source of enzymes (Section 1.3.1.2). The concentrations of marker substrates were based on the Km and Vmax data that were determined previously (data not shown).
(§2) Due to the possibility that boceprevir may bind to microsomal protein or lipids, an attempt was made to design these experiments such that, in as many cases as possible, the microsomal protein, incubation time, and phosphate buffer concentration were 0.1 mg/mL, 5 minutes and 50 mM, respectively, for assays performed with human liver microsomes (Table 1). […] Since it is not imperative that the concentration of marker substrates be exactly equal to Km, the marker substrate concentrations were rounded up or down, as applicable, to simplify the experimental design (data not shown). […] Thus, the final incubation concentration of phenacetin was 60 μM (Table 1).
(§3) The ability of boceprevir to inhibit the CYP enzymes listed in Section 1.2.1 was investigated with a pool of sixteen individual human liver microsomal samples at the concentrations indicated in Table 1. Aliquots of the stock and/or working solutions of boceprevir were manually added to buffer mixtures containing the components described in Section 1.3.21. Incubation mixtures were prepared in bulk to obviate the need for directly pipetting very small volumes (i.e., 1 μL or less). Incubations containing no boceprevir (0 μM) contained the vehicle used to dissolve boceprevir (i.e., 1% methanol).
(§4) The Tecan liquid handling system conducted all remaining incubation steps, with the exception of the centrifugation. Aliquots of the buffer mixtures were then automatically added to 96-well plates at the appropriate locations in duplicate. Aliquots of a substrate working solution were added to the 96-well plates, prior to initiating reactions, to give the final concentrations indicated in Table 1. Reactions were initiated with the addition of an aliquot of an NADPH-generating system. Reactions were automatically terminated at approximately 5 minutes, by the addition of the appropriate internal standard (Table 5) and stop reagent; acetonitrile. Precipitated protein was removed by centrifugation (920 g for 10 minutes at 10° C.). Standards and quality control samples were similarly prepared with the addition of authentic metabolite standards.
(§5) To examine its ability to act as a time-dependent inhibitor, boceprevir (at the same concentrations used to evaluate direct inhibition) was pre-incubated at 37±1° C., in duplicate, with human liver microsomes and an NADPH-generating system for approximately 30 minutes. This pre-incubation allowed for the generation of intermediates that could inhibit human CYP enzymes. The pre-incubations were initiated with the addition of an aliquot of an NADPH-generating system. […] Reactions were automatically terminated, at approximately 5 minutes, by the addition of the appropriate internal standard (Table 5) and stop reagent; acetonitrile. Precipitated protein was removed by centrifugation (920 g for 10 minutes at 10° C.). Incubations containing no boceprevir (0 μM) and incubations that contained boceprevir but were not pre-incubated, served as negative controls.
On the technique in general: Liver microsomes are vesicles of endoplasmic reticulum, rich in cytochrome P450 enzymes.

In data set [2] the test system is CYP3A4/5. As to the kind of experiment: CYP3A4/5 inhibition, midazolam 1′-hydroxylation in human liver microsomes (IC50 and Ki). Format: in vitro ADME. The following applies: for Potential for Time-Dep. Inhibition: comparison with and without 30-minute pre-incubation. The protocol:
as §1, §2, §3, §4, §5

pIC50: −log10 of the molar value. “Also recorded” adds a separate entry of the source. Where two headings read alike, the source gives them in different places.

A word on the pIC50: it is −log10 of the IC50, conventionally taken in molar units. Lower therefore signals a high IC50. By Ki is commonly meant a dissociation constant, usually derived from enzyme kinetics or from competition with a known ligand. A low value points to a stronger hold on the target. The IC50 is the concentration at which inhibition is half-maximal. Low readings indicate inhibition by little substance, high ones a need for much substance. On to `CC(C)(C)NC(=O)NC(C(=O)N1CC2C([C@H]1C(=O)NC(CC1CCC1)C(=O)C(N)=O)C2(C)C)C(C)(C)C` (stereo partly drawn) [Boceprevir, (1R,2S,5S)—N-[(2Ξ)-4-amino-1-cyclobutyl-3,4-dioxobutan-2-yl]-3-{(2S)-2-[(tert-butylcarbamoyl)amino]-3,3-dimethylbutanoyl}-6,6-dimethyl-3-azabicyclo[3.1.0]hexane-2-carboxamide], for which the “Potential for Time-Dep. Inhibition” value in data set [1] is given as “little or no”; in data set [1] (listed as boceprevir), “no discernable time-dependent inhibition”; in data set [2], “yes^c”; in data set [2] (listed as boceprevir), “caused time-dependent inhibition”. The negative logarithm of the IC50 (pIC50) in data set [1] (direct inhibition, zero-minute pre-incubation, pooled human liver microsomes) is under 4.00; in data set [1] (time-dependent inhibition, 30-minute pre-incubation), under 4.00. The inhibition at 5 min, 100 µM is 2.3% in data set [1] (pooled human liver microsomes, direct inhibition, zero-minute pre-incubation, read-out: Max. Inhib. at 100 μM); 6.9% in data set [1] (pooled human liver microsomes, time-dependent inhibition, 30-minute pre-incubation, read-out: Maximum Inhibition at 100 μM); 91% in data set [2] (human, pooled human liver microsomes, pH 7.4, probe midazolam (1′-hydroxylation), direct inhibition, zero-minute pre-incubation, read-out: Max. Inhib. at 100 μM); 99% in data set [2] (human, pooled human liver microsomes, pH 7.4, probe midazolam (1′-hydroxylation), time-dependent inhibition, 30-minute pre-incubation, read-out: Maximum Inhibition at 100 μM). The “Type of Inhibition” value in data set [2] (direct inhibition) is reported as “competitive; also recorded: competit”; in data set [2] (direct inhibition, listed as boceprevir), “competitive”. In data set [2] (human, pooled human liver microsomes, pH 7.4, probe midazolam (1′-hydroxylation), direct inhibition), this compound registered a Ki at 5 min of 7.7 µM. Besides, the IC50 at 5 min in data set [2] (human, pooled human liver microsomes, pH 7.4, probe midazolam (1′-hydroxylation), direct inhibition, zero-minute pre-incubation) was 11 µM; in data set [2] (human, pooled human liver microsomes, pH 7.4, probe midazolam (1′-hydroxylation), time-dependent inhibition, 30-minute pre-incubation), 0.97 µM.
